From patent publication US20260373119A1, “NOVEL COMPOUND, AND COMPOSITION FOR PREVENTING OR TREATING HER2-POSITIVE CANCER, COMPRISING SAME” (EWHA UNIVERSITY - INDUSTRY COLLABORATION FOUNDATION, priority 2022, published 2026) come the findings set out here.

For orientation: IC50 means the concentration at which inhibition is half-maximal.

Assay [1] addresses T1, ELF3-MED23 protein-protein interaction (Homo sapiens, UniProt Q9ULK4).
T1 construct: followed by the addition of either the candidate compound or MED23 protein constructs; endogenous in cells; host or cells: 293T kidney cells (MED23 endogenous; GAL4-ELF3 transfected)
T1 sequence (Q9ULK4 1-1368): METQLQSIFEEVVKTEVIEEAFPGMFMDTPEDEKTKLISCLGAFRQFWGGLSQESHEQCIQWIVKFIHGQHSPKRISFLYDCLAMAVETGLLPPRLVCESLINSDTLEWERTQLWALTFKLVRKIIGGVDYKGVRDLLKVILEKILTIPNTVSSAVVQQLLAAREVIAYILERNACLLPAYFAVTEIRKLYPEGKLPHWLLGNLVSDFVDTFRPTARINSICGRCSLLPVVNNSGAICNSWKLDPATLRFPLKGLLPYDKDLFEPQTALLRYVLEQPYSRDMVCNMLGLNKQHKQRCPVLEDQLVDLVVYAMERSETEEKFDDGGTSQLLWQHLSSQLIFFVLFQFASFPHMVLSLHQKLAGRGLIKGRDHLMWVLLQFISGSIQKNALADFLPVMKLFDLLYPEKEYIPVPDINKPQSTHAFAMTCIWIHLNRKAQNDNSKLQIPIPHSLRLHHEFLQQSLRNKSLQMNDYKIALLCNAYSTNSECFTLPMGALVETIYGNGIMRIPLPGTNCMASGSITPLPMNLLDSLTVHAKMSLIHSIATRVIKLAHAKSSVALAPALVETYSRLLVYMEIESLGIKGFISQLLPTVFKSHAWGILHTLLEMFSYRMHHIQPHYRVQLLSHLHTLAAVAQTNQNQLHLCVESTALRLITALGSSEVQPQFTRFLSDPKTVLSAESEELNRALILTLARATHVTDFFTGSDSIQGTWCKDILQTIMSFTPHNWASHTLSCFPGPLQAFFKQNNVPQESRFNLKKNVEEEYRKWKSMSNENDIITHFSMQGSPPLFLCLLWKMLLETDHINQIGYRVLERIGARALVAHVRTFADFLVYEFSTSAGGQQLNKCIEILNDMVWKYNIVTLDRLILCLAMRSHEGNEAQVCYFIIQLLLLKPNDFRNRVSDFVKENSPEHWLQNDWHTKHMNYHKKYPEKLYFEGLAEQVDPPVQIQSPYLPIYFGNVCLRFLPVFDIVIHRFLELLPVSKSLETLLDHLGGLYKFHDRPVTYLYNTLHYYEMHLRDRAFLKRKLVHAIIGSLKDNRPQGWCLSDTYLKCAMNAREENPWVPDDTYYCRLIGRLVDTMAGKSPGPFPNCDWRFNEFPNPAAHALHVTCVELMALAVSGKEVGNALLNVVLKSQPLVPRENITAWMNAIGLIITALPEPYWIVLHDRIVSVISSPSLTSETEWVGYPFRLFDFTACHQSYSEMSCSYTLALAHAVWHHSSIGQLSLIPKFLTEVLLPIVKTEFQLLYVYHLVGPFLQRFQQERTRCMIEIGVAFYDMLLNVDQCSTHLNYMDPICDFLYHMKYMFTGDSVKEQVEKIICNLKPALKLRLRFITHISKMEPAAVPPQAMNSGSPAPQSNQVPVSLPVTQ
Description: SEAP reporter assay, ELF3-MED23 PPI inhibition (293T kidney cells). It counts as cell-based. For orientation: A reporter such as luciferase makes a cellular process visible.

The target in another assay is EGFR (Homo sapiens, UniProt P00533). Description: kinase profiling, EGFR. It counts as biochemical. The note with it: read-out: In vitro kinase inhibitory activity (%). The method, then: Kinase inhibitory activity of the candidate compound at 10 μM and 25 μM was assessed using Eurofins Kinase Profiling Services. Inhibitory effects on c-RAF, EGFR, ErbB2, ErbB4, and PI3 kinase were analyzed according to the Kinase Profiler Service Assay protocol.
EGFR, sequence (P00533 669-1210 limits assumed): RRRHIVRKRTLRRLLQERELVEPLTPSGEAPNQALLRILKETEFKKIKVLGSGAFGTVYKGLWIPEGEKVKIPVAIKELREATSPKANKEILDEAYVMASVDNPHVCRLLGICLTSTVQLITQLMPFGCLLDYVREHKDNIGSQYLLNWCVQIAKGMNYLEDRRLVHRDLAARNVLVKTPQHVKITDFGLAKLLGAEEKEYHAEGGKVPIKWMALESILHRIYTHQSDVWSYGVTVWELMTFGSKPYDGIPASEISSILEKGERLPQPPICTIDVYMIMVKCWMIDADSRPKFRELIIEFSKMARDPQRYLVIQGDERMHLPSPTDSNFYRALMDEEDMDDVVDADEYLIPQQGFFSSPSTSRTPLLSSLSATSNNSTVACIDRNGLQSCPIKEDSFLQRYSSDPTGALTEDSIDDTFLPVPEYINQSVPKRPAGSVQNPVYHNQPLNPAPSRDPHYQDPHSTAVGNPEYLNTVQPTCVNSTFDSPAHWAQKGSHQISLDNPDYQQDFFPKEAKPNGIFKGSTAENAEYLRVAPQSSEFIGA

Each structure is given as a SMILES string.

The compound `CC(=O)N1N=C(c2cccc(O)c2)CC1c1ccc(Cl)cc1` (stereo not shown) [Compound 15, 1-[5-(4-Chlorophenyl)-3-(3-hydroxyphenyl)-4,5-dihydropyrazol-1-yl]-ethanone] gave a half-inhibitory concentration (IC50) in assay [1] (ELF3-MED23 PPI) of 1.18 ± 0.34 µM. Also, the inhibition at 10 µM in assay [1] (HEK-293T, 10 μM) amounted to 95%; on EGFR (10 μM) it was 0%. Also, the inhibition at 25 µM at EGFR (25 μM) was found to be 0%.
